Results reported in ChEMBL document CHEMBL3044710, “Nematodetoxic aurovertin-type metabolites from a root-knot nematode parasitic fungus Pochonia chlamydosporia” (2010).
Converted amounts (≈) assume the structure as drawn. The source made the active and inactive calls. The rule behind the calls is not given here.

Key:
Meloidogyne incognita [1] = experiment: Nematodexic activity against eggs of Meloidogyne incognita (root-knot nematode) assessed as mean corrected egg hatching inhibition rate at 25 to 400 ug/ml at 28 degC measured after 7 to 13 days by normal binocular microscopic analysis; type: functional
Panagrellus redivivus [2] = experiment: Nematodexic activity against mixed juvenile and adult stages of Panagrellus redivivus assessed as disruption of internal structure, vacuole formation and residual empty somatocysts in the dead worm at 28 degC measured after 48 hr by normal binocular microscopic analysis; type: functional, organism-based
Panagrellus redivivus [3] = experiment: Nematodexic activity against mixed juvenile and adult stages of Panagrellus redivivus assessed as mean corrected mortality rate at 28 degC measured after 48 hr by normal binocular microscopic analysis; type: functional
Meloidogyne incognita [4] = experiment: Nematodexic activity against Meloidogyne incognita (root-knot nematode) assessed as mortality at 500 mg/l after 96 hr; type: functional

| Compound | inhibition (INH) (Meloidogyne incognita [1]) | Activity (Panagrellus redivivus [2]) | LC50 (Panagrellus redivivus [3]) | mortality at 500 µg/mL (Meloidogyne incognita [4]) |
| --- | --- | --- | --- | --- |
| COc1cc(=O)oc(/C=C/C=C/C=C/[C@@H]2O[C@@]3(C)C(C)O[C@](C)([C@H]2O)[C@@H]3O)c1C (some centres undefined) | <=5% |  |  |  |
| CCC1O[C@]2(C)[C@@H](O)[C@H](/C=C/C=C/C=C/c3oc(=O)cc(OC)c3C)O[C@]1(C)[C@H]2O (some centres undefined) | <=5% |  |  |  |
| COc1cc(=O)oc(/C=C/C=C/C=C/C2OC3(C)C([C@H](C)O)OC(C)(C2O)C3OC(C)=O)c1C (some centres undefined) [AUROVERTIN D] | <=5% | Active | 41.7 µg/mL (≈ 87.5 µM) |  |
| COc1cc(=O)oc(/C=C/C=C/C=C/C2OC3(C)C([C@H](C)O)OC(C)(C2O)C3O)c1C (some centres undefined) [AUROVERTIN F] | <=5% | Active | 88.6 µg/mL (≈ 204 µM) |  |
| C/C=C/[C@@H]1OC(=O)C=C[C@@H]1O [PHOMALACTONE] |  |  |  | 84% |
